The results in this text go back to PMC11519904, “Comprehensive Cell Biological Investigation of Cytochalasin B Derivatives with Distinct Activities on the Actin Network” (Journal of Natural Products, 2024).

“Also recorded” adds a separate entry of the source. Read-outs that look alike come from different tables or passages of the source.

Assay [1] relates to L929 (mouse fibroblast). As to the kind of experiment: Cytotoxicity assay (MTT), L929. The following applies: 5 days of incubation, MTT, NC: no cytotoxic effect, or only weak inhibition of proliferation, read-out: IC50 L929. It is filed as cell-based. As to the method: The cytotoxicity assay was implemented in 96-well flat-bottom microtiter plates following a reported procedure.[21],[22],[33] The mammalian cell lines L929 (mouse fibroblast) and KB3.1 (human cervix carcinoma) were cultivated at 37 °C and 10% CO2 in Dulbecco’s modified minimum essential medium (DMEM, Life Technologies, Carlsbad, CA, USA) supplemented with 10% fetal bovine serum (FBS, Life Technologies). The microtiter plate was filled with 120 μL of suspended cells (50,000/mL), and 60 μL of a serial dilution of the test compound was added. After 5 days of incubation, growth inhibition (IC50) was determined by a colorimetric tetrazolium dye MTT assay.[34] The compounds were dissolved in MeOH (1 mg/mL), MeOH was used as negative control, and epothilone[35] (1 mg/mL) was used as positive control.

The test system of assay [2] is filamentous actin (F-actin) in U-2OS wild type (wt) cells. As to the kind of experiment: Actin disruption assay in U-2OS cells (phalloidin staining). Format: cell-based, human. The following applies: for effect on F-actin network, high dose 1 h: 5 x IC50 (L929), compared to control; for effect on actin and nuclei number, high dose 24 h: 5 x IC50, 24 h, differences between 1 and 24 h treatment. The procedure: For this, the human osteosarcoma cell line U-2OS was treated using concentrations estimated based on previously determined IC50 values in murine L929 fibroblasts (Table 1), referred to as low dose (1 × IC50), and a 5-fold concentration, referred to as high dose (5 × IC50). Reorganization of the F-actin network was also investigated upon high dose treatment, followed by washout and a 1 h recovery phase in fresh medium. The impact on F-actin network organization was visualized using fluorescently labeled phalloidin (Figure 2). […] In addition, the effects on F-actin structures observed upon high dose treatment of all compounds were fully reversible after a 1 h recovery time (Figure 2m–q).
The respective previously determined IC50 values in L929 were used to calculate the treatment concentration (1 × IC50: low dose; 5 × IC50: high dose).[37] DMSO was used as the vehicle control, corresponding to the highest compound volume used in the assay. Coverslips were coated with 25 μg/mL fibronectin (Roche, Mannheim, Germany) diluted 1:40 in phosphate buffered saline (PBS, pH 7.4, Life Technologies), and cells were seeded at a density of 20,000 cells and allowed to spread overnight. CO2-equilibrated culture medium was spiked with the desired compound and DMSO, respectively, in the above-mentioned concentration, and cells were treated with prepared medium for 1 h under cell culture conditions. For long-term experiments, the treatment phase was extended to 24 h. Cells were washed once and fixed afterward using 4% prewarmed paraformaldehyde (PFA) supplied in PBS for 20 min at 37 °C, followed by three additional washing steps with prewarmed PBS buffer. In addition, the reversibility of high dose effects on F-actin network organization was investigated by a washout procedure including three times prewarmed PBS wash steps prior to the addition of fresh medium and a recovery time of 1 h before fixation. In the case of 24 h treatments, the recovery phase was extended to 47 h. Cells were permeabilized with 0.1% Triton X-100 (Bio-Rad Laboratories, Hercules, CA, USA) in PBS buffer for 1 min at room temperature, washed three times with PBS, and stained for F-actin using ATTO-594-coupled phalloidin (ATTO-Tec, Siegen, Germany) diluted in PBS buffer (1:100) for 1 h at room temperature. Coverslips were washed thrice in PBS and mounted in ProLong Diamond antifade mountant (Invitrogen) containing DAPI to probe for nuclear DNA. Cells were recorded using an inverted microscope (Nikon Eclipse Ti2, Tokyo, Japan) equipped with a 60 times Nikon oil immersion objective (Plan Apofluar, 1.4 NA), a pE-4000 (CoolLED, Andover, UK) as light source, and a pco.edge back-illuminated sCMOS camera (Excelitas Technologies, Mississauga, ON, Canada). The microscopy system was operated by and images were recorded with NIS (Nikon) and processed with ImageJ (NIH, Bethesda, MD, USA).

As to `C=C1[C@@H](C)[C@H]2[C@H](Cc3ccccc3)NC(=O)[C@]23OC(=O)/C=C/[C@H](O)CCC[C@@H](C)C/C=C/[C@H]3[C@@H]1OC(C)=O` [Compound 3, 7-O-acetyl cytochalasin B], the IC50 in assay [1] was 16 µM; in assay [1] (Mus musculus, L929, 120 h), greater than 10 µM. In assay [2] (1 h), the “effect on F-actin network, high dose 1 h” value is “no such structures; also recorded: no effect”. In addition, the “effect on actin and nuclei number, high dose 24 h” value (shortened to “effect on actin and nuclei number”) in assay [2] was “+ actin disruption; also recorded: altered actin structures, however without inducing multinucleation”.
On to `C=C1[C@@H](C)[C@H]2[C@H](Cc3ccccc3)NC(=O)[C@]23OC(=O)/C=C/[C@H](OC(C)=O)CCC[C@@H](C)C/C=C/[C@H]3[C@@H]1O` [Compound 6, 20-O-acetyl cytochalasin B], for which the IC50 in assay [1] is 4.8 µM; in assay [1] (Mus musculus, L929, 120 h), 4.8 to 9.4 µM. In assay [2] (1 x IC50 (L929), 1 h), the “effect on F-actin network, low dose” value is “partially led to compromised lamellipodia and a reduction of intermittent, cytoplasmic F-actin”. Further, in assay [2] (1 h), the “effect on F-actin network, high dose 1 h” value is reported as “complete collapse of the F-actin network; also recorded: actin disruption”. In assay [2], the “effect on actin and nuclei number” value was “+ multinucleation”.
Regarding `C=C1[C@@H](C)[C@H]2[C@H](Cc3ccccc3)N(C(C)=O)C(=O)[C@]23OC(=O)/C=C/[C@H](O)CCC[C@@H](C)C/C=C/[C@H]3[C@@H]1O` [Compound 5, N-acetyl cytochalasin B], the IC50 in assay [1] is 9.4 µM; in assay [1] (Mus musculus, L929, 120 h) it was 4.8 to 9.4 µM. In addition, the “effect on F-actin network, high dose 1 h” value in assay [2] (1 h) is recorded as “only slight; also recorded: moderate effects”. In addition, the “effect on actin and nuclei number” value in assay [2] is reported as “+ multinucleation actin disruption”.
